Calls of active or inactive are those of the source.
Experiments:
[1] = biological target: T1, Nuclear receptor subfamily 0 group B member 1 (Homo sapiens, UniProt P51843); assay: Luminescence-based cell-based high throughput dose response assay for inhibitors of the orphan nuclear receptor subfamily 0, group B, member 1 (DAX1; NR0B1). [Related pubchem assays (depositor defined):AID504766, AID504790]; type: functional
T1 sequence (P51843 whole entry): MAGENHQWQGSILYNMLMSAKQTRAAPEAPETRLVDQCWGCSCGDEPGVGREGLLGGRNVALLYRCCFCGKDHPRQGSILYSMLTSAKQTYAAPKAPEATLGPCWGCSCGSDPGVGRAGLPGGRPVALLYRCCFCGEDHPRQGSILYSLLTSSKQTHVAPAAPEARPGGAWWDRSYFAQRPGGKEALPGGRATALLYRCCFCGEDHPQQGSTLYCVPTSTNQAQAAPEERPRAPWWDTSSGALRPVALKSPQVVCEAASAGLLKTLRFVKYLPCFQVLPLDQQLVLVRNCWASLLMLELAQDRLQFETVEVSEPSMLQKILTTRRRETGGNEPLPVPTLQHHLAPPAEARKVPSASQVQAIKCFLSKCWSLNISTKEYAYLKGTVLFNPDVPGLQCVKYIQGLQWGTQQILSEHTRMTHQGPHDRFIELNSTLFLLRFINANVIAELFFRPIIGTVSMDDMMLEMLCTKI

HEK293 [2] = assay: cells; type: functional, cell-based; settings: Homo sapiens
H4 = assay: Luminescence Cell-Based Dose Response HTS to Identify Activators of 5'UTR Stem-Loop Driven Prion Protein mRNA Translation in H4 Neuroglioblastoma Cells. [Related pubchem assays: 1829 (Project Summary), 1814 (Primary HTS)]; type: functional; settings: Homo sapiens
cells [3] = type: functional, cell-based
cells [4] = type: functional, cell-based; remark: listed apart in the source
[5] = Luminescence Cell-Based Dose Response HTS to Identify Activators of Luciferase Translation or Activity in H4 […] Cells. [Related pubchem assays: 1829 (Project Summary), 1814 (Primary HTS)]; type: functional
[6] = Luminescence Cell-Based Dose Confirmation HTS to Identify Activators of 5'UTR Stem-Loop Driven Alpha-Synuclein mRNA Translation in H4 Neuroglioblastoma Cells. [Related pubchem assays: 1829 (Project Summary), 1814 (Primary HTS)]; type: functional
Jurkat = assay: SAR Analysis of small molecule inhibitors of T-cell specific antigen receptor-induced NF-kB activation in a Jurkat cell line using a luminescence assay - Set 2. [Related pubchem assays (depositor defined):AID435003, AID435012, AID465]; type: functional, cell-based; settings: Homo sapiens
[7] = non-specific 3'UTR reporter inhibition in Clone20-Shn3RL – cell-based, Renilla luciferase, cherry-picked, counter-screen for Shn3 inhibitor project, dose response (AID 624133); type: functional
[8] = loss of viability in HepG2 cells – cell-based, CellTiter-Glo, cherry-picked, cytotoxicity control for Shn3 inhibitor project, dose response (AID 624134); type: functional
HEK293 [9] = assay: SAR Analysis of small molecule inhibitors of T-cell specific antigen receptor-induced NF-kB activation in a HEK-293T cell line using a luminescence assay - Set 2. [Related pubchem assays (depositor defined):AID435003, AID435012, AID489026]; type: functional, cell-based; settings: Homo sapiens
Exodeoxyribonuclease V = biological target: T2, Exodeoxyribonuclease V (Escherichia coli (strain K12), UniProt P04993+P07648+P08394); assay: RecBCD inhibition via phage-restricted bacterial growth – absorbance, V66 E. coli, mutant T4 phage, counter-screen for AddAB inhibitor project, dose response (AID 492957); type: functional, cell-based, Escherichia coli str. K-12 substr. MG1655
T2 sequence (P04993 whole entry): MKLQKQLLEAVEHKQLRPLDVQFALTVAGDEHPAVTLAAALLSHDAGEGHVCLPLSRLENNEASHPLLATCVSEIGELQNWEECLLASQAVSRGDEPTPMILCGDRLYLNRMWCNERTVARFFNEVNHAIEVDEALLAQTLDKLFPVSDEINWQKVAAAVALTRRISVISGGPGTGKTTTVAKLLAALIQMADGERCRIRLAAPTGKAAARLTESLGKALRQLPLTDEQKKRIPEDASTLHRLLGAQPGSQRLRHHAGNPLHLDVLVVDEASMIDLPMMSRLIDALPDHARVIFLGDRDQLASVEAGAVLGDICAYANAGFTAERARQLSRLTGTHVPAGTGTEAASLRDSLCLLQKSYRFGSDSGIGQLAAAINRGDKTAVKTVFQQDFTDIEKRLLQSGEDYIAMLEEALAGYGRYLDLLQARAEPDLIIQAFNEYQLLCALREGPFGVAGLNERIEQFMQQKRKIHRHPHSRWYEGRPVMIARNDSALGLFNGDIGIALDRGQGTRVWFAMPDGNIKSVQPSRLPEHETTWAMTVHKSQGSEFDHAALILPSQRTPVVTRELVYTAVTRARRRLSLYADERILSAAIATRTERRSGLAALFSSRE
T2 sequence (P07648 whole entry): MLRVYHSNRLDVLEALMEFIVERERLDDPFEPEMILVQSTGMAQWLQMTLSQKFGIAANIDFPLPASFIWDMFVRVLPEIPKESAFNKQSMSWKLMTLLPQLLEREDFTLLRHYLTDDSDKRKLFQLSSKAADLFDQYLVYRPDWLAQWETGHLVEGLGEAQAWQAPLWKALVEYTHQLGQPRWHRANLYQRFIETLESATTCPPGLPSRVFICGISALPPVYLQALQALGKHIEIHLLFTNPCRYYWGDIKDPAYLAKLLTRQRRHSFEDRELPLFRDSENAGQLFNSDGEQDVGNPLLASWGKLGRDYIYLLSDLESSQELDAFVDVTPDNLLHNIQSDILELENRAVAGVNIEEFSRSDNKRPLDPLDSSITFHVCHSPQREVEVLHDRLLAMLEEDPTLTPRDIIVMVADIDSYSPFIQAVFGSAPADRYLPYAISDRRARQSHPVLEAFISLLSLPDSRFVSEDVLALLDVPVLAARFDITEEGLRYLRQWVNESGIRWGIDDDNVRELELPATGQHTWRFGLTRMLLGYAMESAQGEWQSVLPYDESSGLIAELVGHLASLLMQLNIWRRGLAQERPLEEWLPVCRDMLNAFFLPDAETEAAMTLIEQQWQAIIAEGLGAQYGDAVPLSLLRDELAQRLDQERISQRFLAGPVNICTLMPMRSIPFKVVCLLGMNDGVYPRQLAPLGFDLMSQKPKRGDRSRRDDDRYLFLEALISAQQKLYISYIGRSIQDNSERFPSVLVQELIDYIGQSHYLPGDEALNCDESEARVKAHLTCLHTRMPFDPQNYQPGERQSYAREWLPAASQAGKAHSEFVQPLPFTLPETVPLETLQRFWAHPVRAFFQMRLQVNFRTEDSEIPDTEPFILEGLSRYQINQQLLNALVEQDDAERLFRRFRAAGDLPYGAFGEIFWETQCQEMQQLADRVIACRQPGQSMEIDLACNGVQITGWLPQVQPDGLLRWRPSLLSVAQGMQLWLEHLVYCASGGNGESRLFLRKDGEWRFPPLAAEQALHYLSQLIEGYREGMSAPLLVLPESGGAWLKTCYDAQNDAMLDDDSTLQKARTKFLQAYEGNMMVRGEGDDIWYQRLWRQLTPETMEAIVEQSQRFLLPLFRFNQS
T2 sequence (P08394 whole entry): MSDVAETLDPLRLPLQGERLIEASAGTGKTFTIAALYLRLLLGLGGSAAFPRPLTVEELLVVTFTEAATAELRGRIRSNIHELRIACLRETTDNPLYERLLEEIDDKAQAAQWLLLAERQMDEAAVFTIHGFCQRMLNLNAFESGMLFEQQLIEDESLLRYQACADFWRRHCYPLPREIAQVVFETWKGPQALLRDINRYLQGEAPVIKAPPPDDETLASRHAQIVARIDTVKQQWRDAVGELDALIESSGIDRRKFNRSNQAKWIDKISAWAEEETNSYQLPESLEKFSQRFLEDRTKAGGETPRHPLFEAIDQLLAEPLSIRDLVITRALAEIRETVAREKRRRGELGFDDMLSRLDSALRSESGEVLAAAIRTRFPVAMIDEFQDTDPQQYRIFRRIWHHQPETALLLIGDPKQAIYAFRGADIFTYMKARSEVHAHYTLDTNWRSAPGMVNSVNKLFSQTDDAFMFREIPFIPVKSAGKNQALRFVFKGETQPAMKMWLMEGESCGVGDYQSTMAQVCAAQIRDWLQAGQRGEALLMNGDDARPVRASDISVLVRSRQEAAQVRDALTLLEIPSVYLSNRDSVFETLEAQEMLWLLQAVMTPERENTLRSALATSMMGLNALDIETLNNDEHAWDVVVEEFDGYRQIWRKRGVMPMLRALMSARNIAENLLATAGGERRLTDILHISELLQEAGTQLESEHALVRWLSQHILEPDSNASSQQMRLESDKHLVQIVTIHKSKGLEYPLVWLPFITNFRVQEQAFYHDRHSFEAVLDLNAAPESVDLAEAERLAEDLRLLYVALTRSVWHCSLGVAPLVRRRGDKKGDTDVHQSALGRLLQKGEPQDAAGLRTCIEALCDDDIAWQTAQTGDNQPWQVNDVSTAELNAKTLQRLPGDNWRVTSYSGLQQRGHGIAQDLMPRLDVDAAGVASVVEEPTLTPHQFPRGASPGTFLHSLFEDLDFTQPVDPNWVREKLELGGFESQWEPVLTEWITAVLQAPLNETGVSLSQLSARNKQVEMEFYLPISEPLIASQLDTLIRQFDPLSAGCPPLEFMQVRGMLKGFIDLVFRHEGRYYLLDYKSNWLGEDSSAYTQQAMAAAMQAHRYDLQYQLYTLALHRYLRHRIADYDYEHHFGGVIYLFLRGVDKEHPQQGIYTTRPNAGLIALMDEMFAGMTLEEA

[10] = reduction of Shn3 3'UTR-driven luciferase in osteoblasts – cell-based, Clone20 osteoblasts, firefly luciferase, cherry-picked, dose response (AID 624132); type: functional;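 note: firefly luciferase luminescence from reporter carrying the Shn3 3'UTR in osteoblasts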
[11] = Counterscreen for AddAB inhibitors: absorbance-based bacterial cell-based high throughput dose response assay for inhibitors of bacterial viability. [Related pubchem assays (depositor defined):AID435030, AID449728, AID449731, AID488942, AID488955, AID488956]; type: functional
HEK293 [12] = assay: HEK293T cell viability loss, resazurin readout – resazurin fluorescence, cytotoxicity control for NF-kB activator project, SAR follow-up (AID 493251); type: functional, cell-based; settings: Homo sapiens
[13] = biological target: T3, Oxysterols receptor LXR-beta (Homo sapiens, UniProt P55055); type: functional, cell-based;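 note: agonist activity at LXR measured by a cell-based luminescence readout across a dose range, run as a counterscreen for daf-12 agonists; HEK293 cells with Gal4-LXR fusion and GAL4-driven luciferase reporter; potency for activation of Gal4-LXR reporter so compounds are agonists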
T3 sequence (P55055 whole entry): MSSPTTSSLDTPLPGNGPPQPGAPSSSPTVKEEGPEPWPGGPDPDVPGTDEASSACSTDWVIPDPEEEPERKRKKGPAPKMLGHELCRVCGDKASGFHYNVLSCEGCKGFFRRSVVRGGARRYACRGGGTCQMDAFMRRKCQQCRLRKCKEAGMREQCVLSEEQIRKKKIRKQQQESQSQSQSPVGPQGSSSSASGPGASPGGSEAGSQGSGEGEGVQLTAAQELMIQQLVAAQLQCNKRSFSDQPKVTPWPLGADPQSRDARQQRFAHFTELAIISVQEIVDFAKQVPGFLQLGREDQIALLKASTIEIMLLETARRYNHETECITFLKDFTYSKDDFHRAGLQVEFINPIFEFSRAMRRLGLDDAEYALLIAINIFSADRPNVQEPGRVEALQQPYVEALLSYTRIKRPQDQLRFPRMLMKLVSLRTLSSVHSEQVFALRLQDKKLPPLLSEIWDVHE

For `Cc1cc2nc(CSc3ccc(Cl)cc3)cc(O)n2n1`, the IC50 [1] was > 67.6 µM (inactive) and the IC50 (HEK293 [2]) was > 67.6 µM (inactive).
With `O=C(Nc1ncccc1O)c1ccc(S(=O)(=O)Nc2ccccc2)cc1` the IC50 [1] was > 67.6 µM (inactive), the EC50 (H4) was 22.9 µM (active) and the EC50 (cells [3]) was 23.3 µM (active). For the same compound, the EC50 (cells [4]) was > 350 µM (not active), the EC50 [5] was 19.9 µM (active) and the IC50 (HEK293 [2]) was > 0.00338 µM (active). For the same compound, the EC50 [6] was 12.2 µM (active).
In the case of `O=C(Nc1ccc2oc(-c3ccncc3)nc2c1)c1ccc([N+](=O)[O-])o1`, the IC50 (Jurkat) is reported as 55.5 µM (inactive), the AC50 [7] is reported as 20.7 µM (active) and the AC50 [8] is reported as > 70 µM (inactive). The IC50 (HEK293 [9]) was 41.5 µM (inactive), the IC50 (Exodeoxyribonuclease V) was > 119 µM (inactive) and the AC50 [10] was 18.6 µM (active). For the same compound, the IC50 [11] was > 119 µM (inactive) and the IC50 (HEK293 [12]) was > 80 µM (inactive).
In the case of `Cc1cc(NC(=O)c2ccc([N+](=O)[O-])o2)cc(-c2nc3ccccc3o2)c1O`, the IC50 (Jurkat) is reported as 3.42 µM (active), the IC50 (HEK293 [9]) is reported as > 80 µM (inactive) and the IC50 (HEK293 [12]) is reported as > 80 µM (inactive).
For `Oc1[nH]c2ccccc2c1/C=N/c1ccccc1`, the IC50 [1] was > 67.5 µM (inactive), the IC50 (HEK293 [2]) was > 67.5 µM (inactive) and the EC50 [13] was > 67.5 µM (inactive).
